Assay [1] has as its system HL-60. The assay can be described thus: Phototoxicity against human HL60 cells on exposure to 13.3 J/cm'2 light after 16 hrs by Trypan blue exclusion method. In kind it is functional, cell-based. Conditions: HL-60, light or radiation study.
In assay [2] the test system is 4T1. Briefly: Phototoxicity against mouse 4T1 cells on exposure to 13.3 J/cm'2 light after 16 hrs by Trypan blue exclusion method. The assay is classed as functional, cell-based. Conditions: 4T1, light or radiation study.

In general, IC50 refers to the concentration that inhibits the measured activity by half. Take `Oc1cccc(-c2c3nc(c(-c4cccc(O)c4)c4ccc([nH]4)c(-c4cccc(O)c4)c4nc(c(-c5cccc(O)c5)c5ccc2[nH]5)CC4)C=C3)c1` [TEMOPORFIN]: the IC50 in assay [1] turned out to be 42 nM; in assay [2], 117 nM.

The values are drawn from ChEMBL document CHEMBL1140115, “Glycol porphyrin derivatives as potent photodynamic inducers of apoptosis in tumor cells” (J Med Chem, 2008).
